In patent publication US10125098B2, “Therapeutic compounds and methods of use thereof” (GENENTECH, INC., priority 2014, dated 2018) one finds IC50 data, which are given here for 25 compounds.

SMILES strings stand for the structures. Counter-ions that a name gives are not always drawn.

T1 sequence (Q15858 1-1977 isoform Q15858-3): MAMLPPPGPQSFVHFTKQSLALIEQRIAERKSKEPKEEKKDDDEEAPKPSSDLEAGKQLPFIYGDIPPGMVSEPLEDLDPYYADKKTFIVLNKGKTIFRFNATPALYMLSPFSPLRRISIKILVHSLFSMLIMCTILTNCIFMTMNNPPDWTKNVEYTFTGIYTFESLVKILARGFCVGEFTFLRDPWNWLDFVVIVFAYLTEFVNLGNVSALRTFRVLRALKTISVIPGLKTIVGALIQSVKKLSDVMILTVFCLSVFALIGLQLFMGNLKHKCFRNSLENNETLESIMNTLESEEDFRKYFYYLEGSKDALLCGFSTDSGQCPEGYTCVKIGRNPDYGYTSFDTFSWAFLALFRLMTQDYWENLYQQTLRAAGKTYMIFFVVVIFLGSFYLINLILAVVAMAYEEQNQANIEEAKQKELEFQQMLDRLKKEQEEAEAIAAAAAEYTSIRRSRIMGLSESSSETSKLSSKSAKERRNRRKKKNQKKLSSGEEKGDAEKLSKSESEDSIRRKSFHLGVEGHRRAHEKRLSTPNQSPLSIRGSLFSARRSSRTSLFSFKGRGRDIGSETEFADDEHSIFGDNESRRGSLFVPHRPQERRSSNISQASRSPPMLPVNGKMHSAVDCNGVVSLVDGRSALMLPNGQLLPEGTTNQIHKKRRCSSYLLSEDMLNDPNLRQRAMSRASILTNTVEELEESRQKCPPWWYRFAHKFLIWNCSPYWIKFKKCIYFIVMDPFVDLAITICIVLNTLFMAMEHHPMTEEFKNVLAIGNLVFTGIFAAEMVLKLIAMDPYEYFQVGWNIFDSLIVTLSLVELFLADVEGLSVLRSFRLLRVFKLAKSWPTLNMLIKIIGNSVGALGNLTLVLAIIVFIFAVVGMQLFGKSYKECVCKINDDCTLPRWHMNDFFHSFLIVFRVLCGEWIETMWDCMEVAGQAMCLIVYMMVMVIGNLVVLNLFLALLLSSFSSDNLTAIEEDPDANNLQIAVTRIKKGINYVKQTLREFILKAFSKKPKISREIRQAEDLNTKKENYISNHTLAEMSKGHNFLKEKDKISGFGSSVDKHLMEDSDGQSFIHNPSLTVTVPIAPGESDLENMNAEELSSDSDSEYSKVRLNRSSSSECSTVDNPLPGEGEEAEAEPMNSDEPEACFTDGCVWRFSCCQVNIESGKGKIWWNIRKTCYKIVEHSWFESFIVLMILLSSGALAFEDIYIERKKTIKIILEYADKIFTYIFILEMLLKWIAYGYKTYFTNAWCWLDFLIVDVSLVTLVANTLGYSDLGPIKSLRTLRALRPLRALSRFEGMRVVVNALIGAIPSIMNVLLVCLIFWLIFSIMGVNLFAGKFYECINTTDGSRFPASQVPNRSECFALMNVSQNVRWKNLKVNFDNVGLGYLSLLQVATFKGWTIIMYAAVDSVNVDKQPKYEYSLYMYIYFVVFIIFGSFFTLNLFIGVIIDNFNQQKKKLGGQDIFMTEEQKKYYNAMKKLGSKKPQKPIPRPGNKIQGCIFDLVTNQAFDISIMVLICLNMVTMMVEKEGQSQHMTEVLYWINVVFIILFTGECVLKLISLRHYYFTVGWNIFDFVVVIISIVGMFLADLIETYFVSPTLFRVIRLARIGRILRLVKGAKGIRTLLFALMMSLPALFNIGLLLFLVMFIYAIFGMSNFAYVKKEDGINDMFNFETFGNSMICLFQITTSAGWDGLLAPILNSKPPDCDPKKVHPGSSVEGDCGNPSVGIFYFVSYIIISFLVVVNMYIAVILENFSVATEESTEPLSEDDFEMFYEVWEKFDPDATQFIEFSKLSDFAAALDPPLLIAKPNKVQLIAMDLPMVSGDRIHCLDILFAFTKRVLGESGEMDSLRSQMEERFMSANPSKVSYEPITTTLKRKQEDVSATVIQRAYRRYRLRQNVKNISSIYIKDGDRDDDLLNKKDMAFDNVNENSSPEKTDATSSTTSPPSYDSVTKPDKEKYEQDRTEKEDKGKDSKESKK
T1 sequence (Q07699 19-218 partner): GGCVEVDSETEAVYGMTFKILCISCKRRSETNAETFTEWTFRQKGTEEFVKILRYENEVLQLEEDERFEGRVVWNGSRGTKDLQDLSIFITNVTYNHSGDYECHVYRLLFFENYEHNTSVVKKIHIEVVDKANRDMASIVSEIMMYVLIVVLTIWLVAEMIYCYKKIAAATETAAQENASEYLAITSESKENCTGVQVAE

The assay addresses T1, hNav1.7 (Homo sapiens, UniProt Q15858).
T1 construct: expressed in transfected cells
Kind of assay: Tritiated compound binding (LBA) to membranes from cells expressing hNav1.7 and the β1 subunit, competitive binding. The settings on record: competitive binding vs 100 pM [3H]compound, 18 h, room temperature, membranes with hNav1.7 and β1 subunit. On the procedure: Tritiated Compound Binding to Membranes
Isolated from Cells that Heterologously Express hNav1.7 and the β1 Subunit
Preparation of membranes containing recombinantly expressed sodium channels: Frozen recombinant cell pellets were thawed on ice and diluted to 4 times the cell pellet weight with ice cold 50 mM Tris HCl, pH 7.4 buffer. The cell suspensions were homogenized on ice using a motorized glass dounce homogeniser. […] The supernatants were collected and centrifuged at 10000×g at 4° C. for 50 min. The pellets were then re-suspended in 100 mM NaCl, 20 mM Tris HCl, pH 7.4 buffer containing 1% v/v protease inhibitors (Calbiochem) and re-homogenized on ice. The homogenized membranes were then processed through a syringe equipped with a 26 gauge needle. Protein concentrations were determined by Bradford Assay and the membranes were stored at −80° C.
Saturation experiments. A representative compound of formula (I) having a methyl group was tritiated. Three tritiums were incorporated in place of methyl hydrogens to generate [^3H]compound. Binding of this radioligand was performed in 5 mL borosilicate glass test tubes at room temperature. Binding was initiated by adding membranes to increasing concentrations of [^3H]compound in 100 mM NaCl, 20 mM Tris HCl, pH 7.4 buffer containing 0.01% w/v bovine serum albumin (BSA) for 18 h. Non-specific binding was determined in the presence of 1 μM unlabeled compound. After 18 h, the reactants were filtered through GF/C glass fiber filters presoaked in 0.5% w/v polyethylene imine. […] [^3H]compound bound to filters was quantified by liquid scintillation counting.
Binding reactions were performed in 96-well polypropylene plates at room temperature for 18 h. In 360 μL, membranes were incubated with 100 pM [^3H]compound and increasing concentrations of Test Compound. Non-specific binding was defined in the presence of 1 μM unlabeled compound. Reactions were transferred and filtered through 96-well glass fiber/C filter plates presoaked with 0.5% polyethylene imine. […] Bound radioactivity was determined by liquid scintillation counting.
Data Analysis: For saturation experiments, non-specific binding was subtracted from total binding to provide specific binding and these values were recalculated in terms of pmol ligand bound per mg protein. Saturation curves were constructed and dissociation constants were calculated using the single site ligand binding model: Beq=(Bmax*X)/(X+Kd), where Beq is the amount of ligand bound at equilibrium, Bmax is the maximum receptor density, Kd is the dissociation constant for the ligand, and X is the free ligand concentration. For competition studies percent inhibition was determined and IC50 values were calculated using a 4 parameter logistic model (% inhibition=(A+((B−A)/(1+((x/C)^D)))) using XLfit, where A and B are the maximal and minimum inhibition respectively, C is the IC50 concentration and D is the (Hill) slope.
`O=C(O)[C@H]1CCCN1C(=O)c1cc(C2CC2)c(OCC23CC4CC(CC(C4)C2)C3)cc1F` [Example 2, (R)-1-(4-(adamantan-1-ylmethoxy)-5-cyclopropyl-2-fluorobenzoyl)pyrrolidine-2-carboxylic acid] showed a half-inhibitory concentration (IC50) of 426 nM.
Next, `CC12CC3(C)CC(C)(C1)CC(COc1cc(F)c(C(=O)N4CCC[C@H]4C(=O)O)cc1C1CC1)(C2)C3` [Example 3, (S)-1-(5-cyclopropyl-2-fluoro-4-((3,5,7-trimethyladamantan-1-yl)methoxy)benzoyl)pyrrolidine-2-carboxylic acid]: 8.9 nM; `O=C(O)[C@@H]1CCCN1C(=O)c1cc(C2CC2)c(OCC23CC4(F)CC(F)(CC(F)(C4)C2)C3)cc1F` [Example 4, (5)-1-(5-cyclopropyl-2-fluoro-4-((3,5,7-trifluoroadamantan-1-yl)methoxy)benzoyl)pyrrolidine-2-carboxylic acid]: 817 nM; `O=C(O)[C@@H]1CCCN1C(=O)c1cc(C2CC2)c(CN2CCO[C@H](Cc3cc(Cl)cc(Cl)c3)C2)cc1F` [Example 5, (S)-1-(5-cyclopropyl-4-(((R)-2-(3,5-dichlorobenzyl)morpholino)methyl)-2-fluorobenzoyl)pyrrolidine-2-carboxylic acid trifluoroacetic acid salt]: 468 nM.
In turn, `CN(C(=O)c1cc(C2CC2)c(OCC23CC4CC(CC(C4)C2)C3)cc1F)C1(C(=O)O)CC1` [Example 7, 1-(4-(adamantan-1-ylmethoxy)-5-cyclopropyl-2-fluoro-N-methylbenzamido)-cyclopropanecarboxylic acid] registered an IC50 of 3050 nM.
Next, `CC(C)(NC(=O)c1cc(C2CC2)c(OCC23CC4CC(CC(C4)C2)C3)cc1F)C(=O)O` [Example 8, 2-(4-(adamantan-1-ylmethoxy)-5-cyclopropyl-2-fluorobenzamido)-2-methylpropanoic acid]: 1690 nM; `C[C@@H](Oc1ccc(Cl)c(Cl)c1)c1cc(F)c(C(=O)NC2(C(=O)O)CC2)cc1C1CC1` [Example 9, (R)-1-(5-cyclopropyl-4-(1-(3,4-dichlorophenoxy)ethyl)-2-fluorobenzamido)cyclopropanecarboxylic acid]: over 10000 nM; `COC[C@H](NC(=O)c1cc(C2CC2)c(OCC23CC4CC(CC(C4)C2)C3)cc1F)C(=O)O` [Example 10, (S)-2-(4-(adamantan-1-ylmethoxy)-5-cyclopropyl-2-fluorobenzamido)-3-methoxypropanoic acid]: 681 nM.
Next, `CC1(COc2cc(F)c(C(=O)N3CCC[C@H]3C(=O)O)cc2C2CC2)CCC(F)(F)CC1` [Example 12, (S)-1-(5-cyclopropyl-4-((4,4-difluoro-1-methylcyclohexyl)methoxy)-2-fluorobenzoyl)pyrrolidine-2-carboxylic acid]: 984 nM; `O=C(O)[C@@H]1CCCN1C(=O)c1cc(C2CC2)c(OCC2CCCCC2)cc1F` [Example 13, (S)-1-(4-(cyclohexylmethoxy)-5-cyclopropyl-2-fluorobenzoyl)pyrrolidine-2-carboxylic acid]: 173 nM.
Next, `C[C@@H](Oc1ccc(Cl)c(Cl)c1)c1cc(F)c(C(=O)N2CCC[C@H]2C(=O)O)cc1C1CC1` [Example 14, (S)-1-(5-cyclopropyl-4-((R)-1-(3,4-dichlorophenoxy)ethyl)-2-fluorobenzoyl)pyrrolidine-2-carboxylic acid]: 2370 nM; `C[C@@H](Oc1cnc(C2CC2)c(Cl)c1)c1cc(F)c(C(=O)N2CCC[C@H]2C(=O)O)cc1C1CC1` [Example 15, (S)-1-(4-((R)-1-((5-chloro-6-cyclopropylpyridin-3-yl)oxy)ethyl)-5-cyclopropyl-2-fluorobenzoyl)pyrrolidine-2-carboxylic acid]: 6960 nM.
`CC1(C)CCCC(COc2cc(F)c(C(=O)N3CCC[C@H]3C(=O)O)cc2C2CC2)C1` (stereo partly drawn) [Example 16, (2S)-1-(5-cyclopropyl-4-((3,3-dimethylcyclohexyl)methoxy)-2-fluorobenzoyl)pyrrolidine-2-carboxylic acid]: the IC50 is 39.8 nM.
The compound `CC(C)c1cc(C(=O)N2CCC[C@H]2C(=O)O)c(F)cc1OCC12CC3CC(CC(C3)C1)C2` [Example 17, (S)-1-(4-(adamantan-1-ylmethoxy)-2-fluoro-5-isopropylbenzoyl)pyrrolidine-2-carboxylic acid] registered an IC50 of 87.2 nM.
The compound `O=C(O)[C@@H]1CCCN1C(=O)c1cc(C2CC2)c(O[C@H]2C3CC4CC2C[C@](F)(C4)C3)cc1F` [Example 18, (S)-1-(5-cyclopropyl-2-fluoro-4-(((1R,2s,3S,5R,7R)-5-fluoroadamantan-2-yl)oxy)benzoyl)pyrrolidine-2-carboxylic acid] showed an IC50 of 4500 nM.
Under `O=C(O)[C@@H]1CCCN1C(=O)c1cc(C2CC2)c(CN2[C@@H]3CC[C@H]2C[C@@H](Oc2cc(Cl)cc(OC(F)(F)F)c2)C3)cc1F` [Example 19, (S)-1-(4-(((1R,3S,5S)-3-(3-chloro-5-(trifluoromethoxy)phenoxy)-8-azabicyclo[3.2.1]octan-8-yl)methyl)-5-cyclopropyl-2-fluorobenzoyl)pyrrolidine-2-carboxylic acid trifluoroacetic acid salt] stands 443 nM.
Next, `O=C(O)[C@@H]1CCCN1C(=O)c1cc(C2CC2)c(CN2CCC(Oc3cc(Cl)cc(OC(F)(F)F)c3)CC2)cc1F` [Example 20, (S)-1-(4-((4-(3-chloro-5-(trifluoromethoxy)phenoxy)piperidin-1-yl)methyl)-5-cyclopropyl-2-fluorobenzoyl)pyrrolidine-2-carboxylic acid trifluoroacetic acid salt]: 554 nM.
The compound `CC1(COc2cc(F)c(C(=O)N3CCC[C@H]3C(=O)O)cc2C2CC2)CN(c2cc(C(F)(F)F)c(Cl)cn2)C1` [Example 21, (S)-1-(4-((1-(5-chloro-4-(trifluoromethyl)pyridin-2-yl)-3-methylazetidin-3-yl)methoxy)-5-cyclopropyl-2-fluorobenzoyl)pyrrolidine-2-carboxylic acid trifluoroacetic acid salt] yielded a 50% inhibitory concentration (IC50) of 359 nM. Compared with the last compound, the IC50 is about 1.5-fold lower.
Next, `O=C(O)[C@@H]1CCCN1C(=O)c1cc(F)c(Oc2ccc(Cl)cc2-c2ccccc2)cc1F` [Example 22, (S)-1-(4-((5-chloro-[1,1′-biphenyl]-2-yl)oxy)-2,5-difluorobenzoyl)pyrrolidine-2-carboxylic acid]: over 10000 nM.
`O=C(O)[C@@H]1CCCN1C(=O)c1ccc(OCC23CC4CC(CC(C4)C2)C3)c(Cl)c1` [Example 23, (S)-1-((4-(adamantan-1-ylmethoxy))-3-chlorobenzoyl)pyrrolidine-2-carboxylic acid] displayed a concentration for half-maximal inhibition (IC50) of 3960 nM.
Under `O=C(O)[C@@H]1CCCN1C(=O)c1cc(Cl)c(Oc2cnc(OCC(F)(F)F)c(Cl)c2)cc1F` [Example 24, (S)-1-(5-chloro-4-((5-chloro-6-(2,2,2-trifluoroethoxy)pyridin-3-yl)oxy)-2-fluorobenzoyl)pyrrolidine-2-carboxylic acid trifluoroacetic acid salt] stands 2730 nM; under `Nc1noc2ccc(-c3cc(Cl)ccc3Oc3cc(F)c(C(=O)N4CCC[C@H]4C(=O)O)cc3F)cc12` [Example 25, (S)-1-(4-(2-(3-aminobenzo[d]isoxazol-5-yl)-4-chlorophenoxy)-2,5-difluorobenzoyl)pyrrolidine-2-carboxylic acid trifluoroacetic acid], over 10000 nM; under `O=C(O)[C@@H]1CCCN1C(=O)c1cc(C2CC2)c(OCC2CCN(C(c3ccccc3)c3cc(Cl)cc(Cl)c3)CC2)cc1F` (stereo partly drawn) [Example 26, (2S)-1-(5-cyclopropyl-4-((1-((3,5-dichlorophenyl)(phenyl)methyl)piperidin-4-yl)methoxy)-2-fluorobenzoyl)pyrrolidine-2-carboxylic acid trifluoroacetic acid salt], 18.1 nM.
Next, `O=C(O)[C@@H]1CCCN1C(=O)c1cc(C2CCC2)c(OCC23CC4CC(CC(C4)C2)C3)cc1F` [Example 27, (S)-1-(4-(adamantan-1-ylmethoxy)-5-cyclobutyl-2-fluorobenzoyl)pyrrolidine-2-carboxylic acid]: 21.7 nM.
Under `CC1(COc2cc(F)c(C(=O)N3CCC[C@H]3C(=O)O)cc2C2CC2)CN(C(c2ccccc2)c2cc(Cl)cc(Cl)c2)C1` (stereo partly drawn) [Example 28, (2S)-1-(5-cyclopropyl-4-((1-((3,5-dichlorophenyl)(phenyl)methyl)-3-methylazetidin-3-yl)methoxy)-2-fluorobenzoyl)pyrrolidine-2-carboxylic acid trifluoroacetic acid salt] stands 17.6 nM.
